Test results as given in US11452725B2, “Chiral diaryl macrocycles and uses thereof” (TURNING POINT THERAPEUTICS, INC., priority 2015, dated 2022).

Assay: Body weight of mice in xenograft studies
Type: in vivo
Description: Female athymic nude mice and SCID/Beige mice (5-8 weeks of age) were obtained from Charles River Laboratory and were housed in Innovive IVC disposable cages on HEPA filtered ventilated racks with ad libitum access to rodent chow and water. Five million cells in 100 μL, serum-free medium were implanted subcutaneously in the right flank region of the mouse. Karpas299 cells were implanted into the SCID/Beige mice. KM12 cells, NIH3T3 EML4-ALK wild type mutant cells, and NIH3T3 SCD4-ROS1 wild type mutant cells were implanted into the athymic nude mice, respectively. All models except KM12 were implanted with 50% matrigel (Corning, Inc) in the medium. Tumor size and body weight were measured on designated days. Tumor size was measured with an electronic caliper and tumor volume was calculated as the product of length*width^2*0.5.
Female athymic nude mice and SCID/Beige mice (5-8 weeks of age) were obtained from Charles River Laboratory and were housed in Innovive IVC disposable cages on HEPA filtered ventilated racks with ad libitum access to rodent chow and water. Five million cells in 100 μL serum-free medium were implanted subcutaneously in the right flank region of the mouse. Ba/F3 EML4-ALK wild type and G1202R mutant cells, Ba/F3 CD74-ROS1 wild type and G2032R mutant cells were implanted into the SCID/Beige mice. NIH3T3 CD74-ROS1 G2032 mutant cells, NIH3T3 LMNA-TRKA wild type and G595R mutant cells were implanted into the athymic nude mice, respectively. All models were implanted with 50% matrigel (Corning, Inc) in the medium. Tumor size and body weight were measured on designated days. Tumor size was measured with an electronic caliper and tumor volume was calculated as the product of length*width^2*0.5.

Measured: Body weight of the mice

C[C@H]1CNC(=O)c2cnn3ccc(nc23)N[C@H](C)c2cc(F)ccc2O1 [Compound 1, (7S,13R)-11-fluoro-7,13-dimethyl-6,7,13,14-tetrahydro-1,15-ethenopyrazolo[4,3-f][1,4,8,10]benzoxatriazacyclotridecin-4(5H)-one]
no body weight loss was observed: Ba/F3 CD74-ROS1 G2032R model, 15 and 75 mg/kg BID, 11 days | Ba/F3 CD74-ROS1 WT model, 15 and 75 mg/kg BID, 12 days | Ba/F3 EML4-ALK G1202R model, 15 and 75 mg/kg BID, 17 days | Ba/F3 EML4-ALK WT model, 15 and 75 mg/kg BID, 14 days | Karpas 299 model, 15 and 50 mg/kg BID, seven days | NIH3T3 EML4-ALK WT model, 15 and 50 mg/kg BID, 12 days | NIH3T3 LMNA-TRKA G595R model, 3, 15 and 60 mg/kg BID, five days
No loss of body weight: KM12 model Example 13, 15 and 75 mg/kg BID, seven days | KM12 model Example 15, 1, 3 and 15 mg/kg BID, seven days | NIH3T3 LMNA-TRKA WT model, 3 and 15 mg/kg BID, five days
